Measurements as given in PMC11758394, “VCP downstream metabolite glycerol-3-phosphate (G3P) inhibits CD8^+T cells function in the HCC microenvironment” (Signal Transduction and Targeted Therapy, 2025).

Assays:
[1] = biological target: T1, region LCK(240-509AAs) (Homo sapiens, UniProt P06239); experiment: SPR (Biacore 8K, protein on CM5 chip); also ITC; settings: PBS; value not in text; binding of this fragment inferred because it contains 330-509
T1 construct: purified fragment 240-509 (kinase domain)
T1 sequence (P06239 240-509): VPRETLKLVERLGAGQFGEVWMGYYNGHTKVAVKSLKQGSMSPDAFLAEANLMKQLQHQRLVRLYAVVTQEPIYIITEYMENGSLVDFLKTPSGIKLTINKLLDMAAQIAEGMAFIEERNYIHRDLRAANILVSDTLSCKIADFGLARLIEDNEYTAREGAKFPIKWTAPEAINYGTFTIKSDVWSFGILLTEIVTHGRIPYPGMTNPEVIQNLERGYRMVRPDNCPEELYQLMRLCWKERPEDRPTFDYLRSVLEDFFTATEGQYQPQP

[2] = biological target: T2, LCK (Homo sapiens, UniProt P06239); experiment: SPR (Biacore 8K, protein on CM5 chip); also ITC; type: binding; settings: PBS; value not in text
T2 construct: purified full-length LCK
T2 sequence (P06239 whole entry): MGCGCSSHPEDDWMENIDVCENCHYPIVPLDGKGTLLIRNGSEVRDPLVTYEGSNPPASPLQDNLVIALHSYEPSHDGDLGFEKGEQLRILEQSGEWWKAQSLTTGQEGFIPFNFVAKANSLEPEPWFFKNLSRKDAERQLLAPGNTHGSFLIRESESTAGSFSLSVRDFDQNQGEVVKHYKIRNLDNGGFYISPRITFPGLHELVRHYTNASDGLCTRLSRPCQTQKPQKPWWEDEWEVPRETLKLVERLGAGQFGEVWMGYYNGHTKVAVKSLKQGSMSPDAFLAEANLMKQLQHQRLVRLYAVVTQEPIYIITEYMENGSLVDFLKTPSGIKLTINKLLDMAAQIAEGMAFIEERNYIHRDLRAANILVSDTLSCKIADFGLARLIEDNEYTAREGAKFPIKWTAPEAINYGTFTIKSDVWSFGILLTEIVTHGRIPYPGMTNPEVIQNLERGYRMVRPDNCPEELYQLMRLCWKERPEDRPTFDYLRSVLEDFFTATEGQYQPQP

O=P(O)(O)OC[C@H](O)CO [G3P]
Kd [1]: BIAcore measurement of the interaction between G3P and the purified region | Kd [2]: we demonstrated the interaction of LCK and G3P using surface plasmon resonance (BIAcore) experiment
